Experimental data: US9526740B2, “Prochelators as broad-spectrum antimicrobial agents and methods of use” (Duke University, priority 2013, dated 2016)
≈ marks a conversion by molar mass, not a printed value. Where two headings read alike, the source gives them in different places.

What was measured:
E. coli = E. coli dose response in M9 minimal medium; type: cell-based; conditions: no supplemental Cu
Protocol: (§1) FIG. 9 is a graph showing that E. coli dose response to 8HQ and QBP. Under these conditions, 8HQ inhibits E. coli growth at concentrations above ˜1.5 mM, whereas QBP in nontoxic up to 10 mM. Supplemental Cu was not added in these experiments, so presumably 8HQ is using Cu present in the M9 minimal medium.
(§2) 6. Broad Spectrum Activity The antimicrobial properties of oxine (8HQ) against a broad spectrum of fungal and bacterial pathogens has long been recognized. Taking advantage of this cytotoxic activity while minimizing damage to the host has prevented the application of these compounds to combat infectious disease in humans. […] We tested this hypothesis by comparing the cytotoxicity of 8HQ vs QBP against other microbes. Preliminary results indeed show a differential cytotoxicy of 8HQ vs QBP in S. aureus (FIG. 8), E. coli (FIG. 9) and M. marinum (data not shown). In these preliminary results, supplemental Cu was not added to the growth media, so presumably 8HQ uses the basal Cu present in the media to inflict its growth inhibitory action.

C. neoformans H99 strain [1] = assay: C. neoformans growth inhibition (OD600 growth curves, MIC); type: cell-based, Cryptococcus neoformans; conditions: for MIC: Cryptococcus neoformans, H99STRAIN; for Growth inhibition of C. neoformans in the presence of 1 mM CuSO4: QBP up to the 100 μM dose tested
S. aureus = S. aureus dose response in tryptic soy broth; type: cell-based; conditions: no supplemental Cu
Protocol: as §1, with “8” for “9”, “S. Aureus” for “E. coli”, “˜150 μM,” for “˜1.5 mM,”, “˜2.5” for “10”, “tryptic soy broth” for “M9 minimal”
as §2

[2] = test system: MT1 gene in WT C. neoformans; assay: MT1 gene expression by qPCR normalized to ACT1; type: cell-based, Cryptococcus neoformans; conditions: 30 min; for MT1 induction, compound alone: 10 μM compound, no Cu
Protocol: FIG. 6 is a graph showing Cu+8HQ (not QBP) increase expression levels of the MT1 gene. An overnight growth of WT C. neoformans was diluted in SC media to an OD600 of 0.2, incubated for 3 h to begin log phase growth, and treated with Cu and/or compound as indicated. After 30 min, cells were harvested and RNA was extracted, with subsequent RT-PCR to produce cDNA. Fold-change of MT1 was quantified using qPCR and normalized to ACT1. The strength of MT1 induction increases with [Cu].
5. 8HQ Increases the Cu Burden on C. neoformans. Our working hypothesis for the mechanism of action of 8HQ is that it increases the microbial burden of bioreactive Cu. If 8HQ translocates Cu into the cell in a bioavailable form, we would expect expression levels of proteins involved in Cu homeostasis to be sensitive to that influx. […] Metallothionein proteins are known to detoxify Cu and other metals by encasing them within cysteine-rich coordination sites. Increased expression of MT1 is consistent with our hypothesis that 8HQ increases bioavailable Cu, which is sensed by the cell in the form of MT1 transcription.

[3] = test system: murine macrophage-like J774A.1 cells; assay: Viability of macrophage-like cells (CellTiter-Glo)
Protocol: Cells were seeded at 1×10^5 cells/mL in 96-well plate in DMEM+10% FBS, incubated at 37° C. for 12 h, and assayed for viability with CellTiter-Glo®.

[4] = test system: C. neoformans CTR1/4Δ strain; conditions: YPEG media without Cu supplementation
Protocol: (§3) FIG. 7 is a graph showing the Effects of 8HQ on growth of C. neoformans mutants. A) WT C. neoformans and a MT1/2Δ[…], strain were grown in SC media with 10 μM CuSO4 and increasing [8HQ].

[5] = test system: C. neoformans MT1/2Δ strain; conditions: SC media with 10 μM CuSO4
Protocol: as §3

C. neoformans H99 strain [6] = conditions: 10 μM or higher 8HQ in the presence of 10 μM CuSO4
Protocol: (§4) Top: Growth of C. neoformans H99 strain in SC media monitored by optical density (OD) over the course of 50 hours, where an increase in OD600 indicates normal growth. […] Bottom: In a follow up experiment to the growth curve assay shown on top, samples were taken after 50 h and plated to determine colony-forming units (CFUs).

C. neoformans H99 strain [7] = assay: C. neoformans growth inhibition (OD600 growth curves, MIC); type: cell-based, Cryptococcus neoformans; conditions: for C. neoformans growth with Cu, without H2O2: SC media + 10 μM CuSO4, no H2O2; for MIC: Cryptococcus neoformans, H99STRAIN, growth inhibition of C. neoformans, no Cu added
Protocol: as §4
The ability of 8-HQ to inhibit C. neoformans growth was tested with respect to metal specificity. The concentration of the indicated metals was held constant at 10 μM and cells were incubated in the presence of escalating doses of 8HQ from 0 to 50 μM. Growth was monitored over a time course in hours (x-axis) and the optical density at 600 nm was plotted at each time (y-axis).
WT C. neoformans H99 strain was grown in SC media+/−10 μM CuSO4 and 8HQ or QBP at indicated concentrations. Growth was monitored by OD600 and normalized to 100% viability for untreated controls after 50 h at 30° C.

[8] = in vitro; 25° C.; cited from earlier work
M. marinum = M. marinum cytotoxicity comparison (data not shown); type: cell-based; conditions: no supplemental Cu, preliminary
Excerpt: 6. Broad Spectrum Activity The antimicrobial properties of oxine (8HQ) against a broad spectrum of fungal and bacterial pathogens has long been recognized. Taking advantage of this cytotoxic activity while minimizing damage to the host has prevented the application of these compounds to combat infectious disease in humans.

[9] = Tolerability of intraperitoneal administration to mice; type: in vivo; conditions: 2 mg/kg or 10 mg/kg every second day over a two-week period
Excerpt: 4. Toxicity of Prochelator is Activated by H2O2.

[10] = test system: IFN-γ and LPS-activated primary bone marrow derived macrophage cells (BMM); assay: Viability of activated primary bone marrow derived macrophages; conditions: doses up to 50-100 μM, even with supplemental Cu; data not shown
[11] = growth inhibition of C. neoformans, * 1 mM Cu2+, read-out: MIC (with added Copper(II) Sulfate)
[12] = doses up to 50-100 μM, even with supplemental Cu

SMILES: Oc1cccc2cccnc12 [8HQ, 8-hydroxyquinoline]
- Concentration above which E. coli growth is inhibited (E. coli): ~1.5 mM
- C. neoformans growth (OD600), compound tested individually (C. neoformans H99 strain [1]; 100 μM 8HQ alone, SC media, 50 hours): not affected
- MIC (C. neoformans H99 strain [1]; read-out: MIC (no Cu added), growth inhibition of C. neoformans, no Cu added): > 100 µM
- MIC (C. neoformans H99 strain [1]; read-out: MIC (with added Copper(II) Sulfate), growth inhibition of C. neoformans, * 10 M Cu2+): 5 µM (≈ 0.726 µg/mL)
- MIC (C. neoformans H99 strain [1]; read-out: MIC of 8HQ with supplemental Cu, 10 μM supplemental Cu (CuSO4)): 5 µM
- MIC (C. neoformans H99 strain [1]; read-out: MIC of 8HQ with supplemental iron, 10 μM supplemental iron): 50 µM
- MIC (C. neoformans H99 strain [1]; read-out: MIC of 8HQ with supplemental silver, 10 μM supplemental silver): 25 µM
- MIC (C. neoformans H99 strain [1]; read-out: MIC of 8HQ with supplemental zinc, 10 μM supplemental zinc): 50 µM
- Concentration above which S. aureus growth is inhibited (S. aureus): ~150 µM
- MT1 induction, compound alone [2]: do not cause robust induction of MT1
- MT1 levels, 8HQ+Cu ([2]; 8HQ+Cu (10 pM each)): MT1 levels greater than what is seen with 100 μM CuSO4 alone
- IC50, cell viability of J774A.1 cells ([3]; medium supplemented with 10 μM CuSO4): sub-μM
- IC50 ([3]; read-out: IC50, cell viability of J774A.1 cells, no supplemental Cu): ~5 µM
- Growth of transporter mutant on addition of 8HQ [4]: promotes growth
- 8HQ concentration at which growth defect begins [5]: 6.25 µM
- Colony-forming units (CFUs) after 50 h (C. neoformans H99 strain [6]): absence of CFUs
- C. neoformans growth with Cu, without H2O2 (C. neoformans H99 strain [7]; 50 h at 30° C.): inhibits growth

SMILES: O=S(=O)([O-])[O-].[Cu+2] [copper, Copper(II) Sulfate]
- C. neoformans growth (OD600), copper tested individually (C. neoformans H99 strain [1]; 1 mM copper alone, SC media, 50 hours): not affected

SMILES: Oc1ccc2ncccc2c1 [6HQ, 6-hydroxyquinoline]
- Growth inhibition of C. neoformans in the presence of 1 mM CuSO4 (C. neoformans H99 strain [1]): does not inhibit growth
- MIC (C. neoformans H99 strain [1]; [11]): > 100 µM
- MIC (C. neoformans H99 strain [7]): > 100 µM

SMILES: Cc1cc(-c2ccc(S(=O)(=O)O)cc2)c2ccc3c(-c4ccc(S(=O)(=O)O)cc4)cc(C)nc3c2n1 [BCS]
- Change in MT1 expression, control chelator [2]: does not lead to a change in MT1 expression

SMILES: CC1(C)C2CC3OB(c4cccc5cccnc45)O[C@]3(C)C1C2 (stereo in doubt) [QBP, quinoline boronic ester]
- Concentration up to which nontoxic to E. coli (E. coli): up to 10 mM
- Growth inhibition of C. neoformans in the presence of 1 mM CuSO4 (C. neoformans H99 strain [1]): nontoxic
- MIC (C. neoformans H99 strain [1]; [11]): > 100 µM
- Concentration up to which nontoxic to S. aureus (S. aureus): ~2.5 mM
- MT1 induction, compound alone [2]: do not cause robust induction of MT1
- MT1 response, QBP+Cu ([2]; QBP+Cu (10 μM each)): responds identically to treatment with 10 μM CuSO4 alone
- Rate constant of conversion to 8HQ upon reaction with H2O2 [8]: 0.25 M⁻¹ s⁻¹
- Toxicity to J774A.1 cells [3, 12]: nontoxic
- Toxicity to M. marinum compared with 8HQ (M. marinum): significantly less toxic
- Adverse effects in mice [9]: no obvious adverse affects
- MIC (C. neoformans H99 strain [7]): > 100 µM
- C. neoformans growth with Cu and H2O2 (C. neoformans H99 strain [7]; QBP/H2O2/Cu, SC media, 50 h at 30° C.): inhibited cell growth as well as 8HQ/Cu
- C. neoformans growth with Cu, without H2O2 (C. neoformans H99 strain [7]; 50 h at 30° C.): did not inhibit cell growth
- Toxicity to C. neoformans (C. neoformans H99 strain [7]; [12]): nontoxic
- Toxicity to BMM [10]: nontoxic
